Assay results published in a melting point compilation (Tetko et al.; mined from patent text by program, amines drawn as free bases though some values may be those of a salt).

Row | Structure (SMILES) | melting point
1 | CCCCCCCCCCCCCCCCCCNC(=O)NCCCCCCN | 123 to 168 °C
2 | O=C(CSc1n[nH]c(-c2ccccc2)n1)C12CC3CC(CC(C3)C1)C2 | 187 to 188 °C
3 | Oc1ccc(CCCCCCc2ccc(O)cc2)cc1 | 143 to 144 °C
4 | N#Cc1c(N2CCCCC2)cc(-c2ccc3ccccc3c2)c2c1-c1ccccc1C2=O | 166 to 167 °C
5 | O=C1CN(c2ccccc2)C(=S)N1Cc1ccccc1 | 103 °C
6 | Nc1ccc(C(O)(C(F)(F)F)C(F)(F)F)cc1S | 121 to 123 °C
7 | C[C@@H](n1ncn(-c2ccc(-n3ccn(-c4ccc(OCC(F)(F)C(F)F)cc4)c3=O)cc2)c1=O)[C@](O)(Cn1cncn1)c1ccc(F)cc1F | 181 to 183 °C
8 | CC(=N)Nc1ccc(CCc2nc(NC(C)=O)sc2Cc2ccc(S(C)(=O)=O)cc2)cc1 | 81.5 to 83 °C
9 | O=C(CCC(CCC(=O)OCc1ccccc1)(CCC(=O)OCc1ccccc1)[N+](=O)[O-])OCc1ccccc1 | 95 to 96 °C
10 | COC(=O)COC(=O)COc1ccc([N+](=O)[O-])cc1 | 88 to 90 °C
11 | Nc1ncnc2cccc(Oc3ccc(F)cc3)c12 | 188 to 190 °C
12 | CC(C)(C)C(=O)C(Cl)C(=O)Nc1ccccc1 (centres undefined) | 154 °C
13 | COc1cc(COc2nn(-c3ccccc3)cc2/C=C/C(=O)N(C)OC)ccc1OCc1nc(-c2ccco2)oc1C | 173 to 174 °C
14 | CC1Cc2cc(Cl)ccc2C(c2ccc([N+](=O)[O-])cc2)=NN1 (centres undefined) | 152 to 154 °C
15 | CC1(C)CC(NC(=O)c2ccccc2)CC(C)(C)N1CC#N | 182 °C
16 | Cc1cccc(N2CC(=O)NC(=O)N2)c1 | 245 to 247 °C
17 | NC(=O)C1C(CSSCC2C(C(N)=O)N(Cc3ccccc3)C(=O)N2Cc2ccccc2)N(Cc2ccccc2)C(=O)N1Cc1ccccc1 (centres undefined) | 208 to 211 °C
18 | COc1cccc(OC(=O)NC2C(=O)N(CCC(C)C)c3cc(Cl)c(Cl)cc3N(c3ccccc3)C2=O)c1 (centres undefined) | 139 to 140 °C
19 | CC#CC(C)(C)NC(=O)C(CC)Oc1cncc(Cl)c1 (centres undefined) | 87 to 89 °C
20 | O=C(Oc1ccccc1)N1CCCc2nc3ccccc3c(Cl)c2C1 | 137 °C
21 | CC(NC(=O)NO)c1ccc2ccccc2c1 (centres undefined) | 156 to 157 °C
22 | CC(=O)N1N=C(c2ccncc2)OC1c1ccc(Cl)c(Cl)c1 (centres undefined) | 101 to 104 °C
23 | CC(=O)Nc1nc(CN2CCN(C(c3ccccc3)c3ccccc3)CC2)cs1 | 178 to 179 °C
24 | Cc1cccc(C(=O)NC(NC(=NC#N)Nc2ccc(Cl)nc2)C(C)(Cl)Cl)c1 (centres undefined) | 145 to 146 °C
25 | O=C(O)CCC(=O)CC(=O)c1cccnc1 | 156 to 158 °C
26 | CCCCCCCCCCCCCCCC(=O)NCCCCCCCCCCCC(=O)O | 119 to 121 °C

Results, then the compound that gave them:

Row | melting point | Structure (SMILES)
27 | 63 to 71 °C | CC(C)[C@H](NC(=O)OCc1ccccc1)C(=O)N[C@@H](C(C)C)[C@@H](O)c1c(-c2ccccc2)c1=O
28 | 220 to 223 °C | COc1cc2ncc(C#N)c(Cl)c2cc1OC
29 | 99 to 100 °C | CN(Cc1ccccc1)C(=O)CCc1nc(-c2ccc(Cl)cc2)co1
30 | 159 to 162 °C | ON=C1CCC(c2ccc(Cl)c(Cl)c2)c2ccccc21 (centres undefined)
31 | 56 to 58 °C | CCCCCCCCCCCCCCOc1cc(OCCCCCCc2cccc(OCc3ccccc3)c2OCc2ccccc2)cc(C(=O)OC)c1
32 | 70 to 73 °C | CCCCC(NS(=O)(=O)c1ccc(Cl)cc1)C(=S)Nc1ccc(CC(=O)OCC)cc1 (racemic)
33 | 124 °C | CCOCCO[C@@H]1c2ccn3c(C)c(C)nc3c2N[C@H](c2ccccc2)[C@H]1OC(=O)OCCCC(Cl)CC (some centres undefined)
34 | 134 to 138 °C | CNC(=O)c1cnc(Cl)c(Cl)c1
35 | 94 to 95 °C | CC(=O)N1CCc2ccc(SCc3ccccc3)c([N+](=O)[O-])c2C1
36 | 166 to 167 °C | COc1cccc(C2c3c(C)c(NC(=O)CC(C)(C)C)c(C)c(C)c3OC2(C)C)c1 (centres undefined)
37 | 140 °C | O=C(c1nc(-c2ccccc2)nc2ccccc12)N1CCCCCC1
38 | 171 to 174 °C | O=C(c1ccc(-c2ccccc2)nc1)N1Cc2cccn2Cc2ccccc21
39 | 187 to 189 °C | CN(C)C=CC(=O)c1c(-c2ccc(F)cc2)nc2occn12
40 | 102 °C | O=C1CCC(N2CCOc3cc(Br)ccc32)CC1
41 | 210 to 212 °C | COC(=O)c1cccc2nc(OCC(F)(F)F)n(Cc3ccc(-c4ccccc4-c4nnn[nH]4)cc3)c12
42 | 197 to 199 °C | CNC(=O)c1ccccc1Nc1nc(Nc2cc3c(cc2OC)NC(=O)CCC3(C)C)ncc1Cl
43 | 219 to 221 °C | Cc1cc(C(=O)N2CC(O)C2)ncc1C(c1cc(F)ccc1F)S(=O)(=O)c1ccc(F)cc1 (centres undefined)
44 | 150 to 152 °C | Oc1ccc(-c2nnn(-c3ccc(C(F)(F)F)cc3F)c2Cl)c(Cl)c1
45 | 279 to 280 °C | N=c1[nH]c2ccc(Cl)cc2c2ncnn12
46 | 115 to 116 °C | O=C1C2CCCCC2C(=O)N1CCOC(OCCN1C(=O)C2CCCCC2C1=O)(C(=O)c1ccccc1)c1ccccc1 (centres undefined)
47 | 145 °C | CSC(=NC#N)NS(=O)(=O)c1cc(Cl)ccc1Cl
48 | 274 to 276 °C | Cc1[nH]c(C(=O)N2CCC(C(=O)NCC3CCCCC3)CC2)c(C)c1-c1nc2ccc(C(=O)c3ccccc3)cc2[nH]1
49 | 194 °C | COc1ccc(S(=O)(=O)N2C(=O)C(=O)c3cc(Cl)ccc32)c(OC)c1
